SMILES strings stand for the structures.

For data set [1] the following is noted: human gut metagenome, 24 h, 2 µM.
Data set [2] in a line: The drug is tested on Z-018 corresponding to pig gut metagenome with ENA study accession number: PRJEB37062 and ENA sample accession number: ERS12561817 for biotransformation under anaerobic condition. The drug concentrations were measured over 9 timepoints collected between 0 and 24 hours of incubation by liquid-chromatography-coupled mass spectrometry (LC–MS). The settings on record: 2 µM.

Data set [3] is described as follows: The drug is tested on WLS-220 corresponding to human gut metagenome with ENA study accession number: PRJEB37062 and ENA sample accession number: ERS12561769 for biotransformation under anaerobic condition. The drug concentrations were measured over 9 timepoints collected between 0 and 24 hours of incubation by liquid-chromatography-coupled mass spectrometry (LC–MS). The settings on record: 2 µM.

For data set [4] the following is noted: human gut metagenome, 24 h, 2 µM. This is another data set of the same source.
Data set [5] in a line: The drug is tested on WLS-086 corresponding to human gut metagenome with ENA study accession number: PRJEB37062 and ENA sample accession number: ERS12561752 for biotransformation under anaerobic condition. The drug concentrations were measured over 9 timepoints collected between 0 and 24 hours of incubation by liquid-chromatography-coupled mass spectrometry (LC–MS). The settings on record: 2 µM.

A short description of data set [6]: The drug is tested on Z-028 corresponding to mouse gut metagenome with ENA study accession number: PRJEB37062 and ENA sample accession number: ERS12561827 for biotransformation under anaerobic condition. The drug concentrations were measured over 9 timepoints collected between 0 and 24 hours of incubation by liquid-chromatography-coupled mass spectrometry (LC–MS). The settings on record: 2 µM.

For data set [7] the following is noted: human gut metagenome, 24 h, 2 µM. The source holds these as a separate data set.
Data set [8] can be described thus: The drug is tested on Z-023 corresponding to metagenome with ENA study accession number: PRJEB37062 and ENA sample accession number: ERS12561822 for biotransformation under anaerobic condition. The drug concentrations were measured over 9 timepoints collected between 0 and 24 hours of incubation by liquid-chromatography-coupled mass spectrometry (LC–MS). Particulars: 2 µM.

The nature of data set [9]: The drug is tested on Z-026 corresponding to metagenome with ENA study accession number: PRJEB37062 and ENA sample accession number: ERS12561825 for biotransformation under anaerobic condition. The drug concentrations were measured over 9 timepoints collected between 0 and 24 hours of incubation by liquid-chromatography-coupled mass spectrometry (LC–MS). Particulars: 2 µM.

Data set [10] can be described thus: The drug is tested on Z-010 corresponding to metagenome with ENA study accession number: PRJEB37062 and ENA sample accession number: ERS12561810 for biotransformation under anaerobic condition. The drug concentrations were measured over 9 timepoints collected between 0 and 24 hours of incubation by liquid-chromatography-coupled mass spectrometry (LC–MS). The settings on record: 2 µM.

The conditions of data set [11]: human gut metagenome, 24 h, 2 µM. This is another data set of the same source.
Data set [12] in a line: The drug is tested on WLS-310 corresponding to human gut metagenome with ENA study accession number: PRJEB37062 and ENA sample accession number: ERS12561785 for biotransformation under anaerobic condition. The drug concentrations were measured over 9 timepoints collected between 0 and 24 hours of incubation by liquid-chromatography-coupled mass spectrometry (LC–MS). Particulars: 2 µM.

The conditions of data set [13]: human gut metagenome, 24 h, 2 µM. The source holds these as a separate data set.
Data set [14] in a line: The drug is tested on Z-021 corresponding to metagenome with ENA study accession number: PRJEB37062 and ENA sample accession number: ERS12561820 for biotransformation under anaerobic condition. The drug concentrations were measured over 9 timepoints collected between 0 and 24 hours of incubation by liquid-chromatography-coupled mass spectrometry (LC–MS). The settings on record: 2 µM.

The conditions of data set [15]: human gut metagenome, 24 h, 2 µM. The source holds these as a separate data set.
The conditions of data set [16]: human gut metagenome, 24 h, 2 µM. This is another data set of the same source.
The nature of data set [17]: The drug is tested on Z-024 corresponding to pig gut metagenome with ENA study accession number: PRJEB37062 and ENA sample accession number: ERS12561823 for biotransformation under anaerobic condition. The drug concentrations were measured over 9 timepoints collected between 0 and 24 hours of incubation by liquid-chromatography-coupled mass spectrometry (LC–MS). Particulars: 2 µM.

Data set [18] in a line: The drug is tested on WLS-038 corresponding to human gut metagenome with ENA study accession number: PRJEB37062 and ENA sample accession number: ERS12561745 for biotransformation under anaerobic condition. The drug concentrations were measured over 9 timepoints collected between 0 and 24 hours of incubation by liquid-chromatography-coupled mass spectrometry (LC–MS). Particulars: 2 µM.

Data set [19] can be described thus: The drug is tested on Z-009 corresponding to pig gut metagenome with ENA study accession number: PRJEB37062 and ENA sample accession number: ERS12561809 for biotransformation under anaerobic condition. The drug concentrations were measured over 9 timepoints collected between 0 and 24 hours of incubation by liquid-chromatography-coupled mass spectrometry (LC–MS). Particulars: 2 µM.

A short description of data set [20]: The drug is tested on WLS-090 corresponding to human gut metagenome with ENA study accession number: PRJEB37062 and ENA sample accession number: ERS12561753 for biotransformation under anaerobic condition. The drug concentrations were measured over 9 timepoints collected between 0 and 24 hours of incubation by liquid-chromatography-coupled mass spectrometry (LC–MS). The settings on record: 2 µM.
Also: call rule not given here.

`CC(N)C12CC3CC(CC(C3)C1)C2` (stereo not given) [RIMANTADINE]: the “Bacterial Biotransformation” value in data set [1], in data set [2], in data set [3], in [4], in data set [5] and in data set [6] was “Compound NOT metabolized” in each case. In addition, the “Bacterial Biotransformation” value in data set [7], in data set [8], in data set [9], in data set [10], in data set [11] and in [12] was “Compound NOT metabolized” throughout. Besides, the “Bacterial Biotransformation” value in [13], in [14], in [15], in data set [16], in data set [17] and in [18] was “Compound NOT metabolized” throughout. In addition, the “Bacterial Biotransformation” value in data set [19] and in data set [20] was “Compound NOT metabolized” each time.
Turning to `O=P1(N(CCCl)CCCl)NCCCO1` (stereo not given) [CYCLOPHOSPHAMIDE ANHYDROUS], the “Bacterial Biotransformation” value in data set [1] is recorded as “Compound NOT metabolized”; in data set [2], “Compound NOT metabolized”; in data set [3], “Compound metabolized”; in data set [4], “Compound metabolized”; in data set [5] it was “Compound metabolized”; in data set [6] it was “Compound NOT metabolized”. Besides, the “Bacterial Biotransformation” value is listed as “Compound NOT metabolized” in data set [7]; “Compound NOT metabolized” in data set [8]; “Compound NOT metabolized” in data set [9]; “Compound NOT metabolized” in data set [10]; “Compound NOT metabolized” in data set [11]; “Compound metabolized” in data set [12]. For the same compound, the “Bacterial Biotransformation” value in data set [13] is “Compound metabolized”; in data set [14], “Compound NOT metabolized”; in data set [15], “Compound metabolized”; in [16] it was “Compound metabolized”; in [17], “Compound NOT metabolized”; in data set [18] it was “Compound NOT metabolized”. Also, the “Bacterial Biotransformation” value in data set [19] and in [20] was “Compound metabolized” each time.
Take `CCN(C)C(=O)Oc1cccc([C@H](C)N(C)C)c1.O=C(O)C(O)C(O)C(=O)O` [RIVASTIGMINE TARTRATE]: the “Bacterial Biotransformation” value in [1], in [2], in data set [3], in [4], in data set [5] and in [6] was “Compound NOT metabolized” throughout. Also, the “Bacterial Biotransformation” value in data set [7], in [8], in [9], in [10], in data set [11] and in data set [12] was “Compound NOT metabolized” each time. The “Bacterial Biotransformation” value is listed as “Compound metabolized” in data set [13]; “Compound NOT metabolized” in data set [14]; “Compound NOT metabolized” in [15]; “Compound NOT metabolized” in data set [16]; “Compound NOT metabolized” in data set [17]; “Compound metabolized” in data set [18]. For the same compound, the “Bacterial Biotransformation” value in data set [19] and in [20] was “Compound NOT metabolized” in each case.
In the case of `CCCC(C)(COC(N)=O)COC(=O)NC(C)C` (stereo not given) [CARISOPRODOL], the “Bacterial Biotransformation” value in [1], in [2], in [3], in [4], in [5] and in [6] was “Compound metabolized” each time. The “Bacterial Biotransformation” value in data set [7] was “Compound metabolized”; in data set [8] it was “Compound metabolized”; in data set [9], “Compound NOT metabolized”; in data set [10], “Compound metabolized”; in data set [11], “Compound metabolized”; in data set [12], “Compound NOT metabolized”. The “Bacterial Biotransformation” value in [13] is listed as “Compound NOT metabolized”; in data set [14], “Compound NOT metabolized”; in data set [15], “Compound metabolized”; in [16], “Compound metabolized”; in data set [17], “Compound metabolized”; in [18], “Compound metabolized”. In addition, the “Bacterial Biotransformation” value in data set [19] and in data set [20] was “Compound metabolized” each time.
As for `COc1cc2nc(N3CCN(C(=O)C4COc5ccccc5O4)CC3)nc(N)c2cc1OC.CS(=O)(=O)O` (stereo not given) [DOXAZOSIN MESYLATE], the “Bacterial Biotransformation” value is on record as “Compound metabolized” in [1]; “Compound metabolized” in data set [2]; “Compound metabolized” in data set [3]; “Compound NOT metabolized” in data set [4]; “Compound metabolized” in data set [5]; “Compound NOT metabolized” in [6]. Also, the “Bacterial Biotransformation” value is listed as “Compound NOT metabolized” in data set [7]; “Compound metabolized” in data set [8]; “Compound metabolized” in data set [9]; “Compound metabolized” in data set [10]; “Compound NOT metabolized” in data set [11]; “Compound metabolized” in data set [12]. The “Bacterial Biotransformation” value is recorded as “Compound metabolized” in [13]; “Compound NOT metabolized” in data set [14]; “Compound NOT metabolized” in [15]; “Compound metabolized” in data set [16]; “Compound NOT metabolized” in data set [17]; “Compound metabolized” in data set [18]. For the same compound, the “Bacterial Biotransformation” value is given as “Compound NOT metabolized” in data set [19] and “Compound metabolized” in [20].

Values taken from ChEMBL document CHEMBL5724914, “Linking interpersonal differences in gut microbiota composition and drug biotransformation activity” (2024).
